What is called IC50 is the point on the concentration scale where inhibition reaches its midpoint.

This test deals with human Kv1.3 (Homo sapiens, UniProt P22001). The experiment in a line: IonWorks automated patch clamp assay of inhibitory activity against Kv1.3. In kind it is cell-based. The following applies: automated patch clamp method; CHO-K1 cells stably expressing human Kv1.3. In short, it runs like this:
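CHO-K1 cells stably expressing human Kv1.3, perforated-patch IonWorks Quattro (amphotericin B 200 μg/mL internal), external solution pH 7.3. Compounds 0.00384-30 μM final, 0.3% DMSO, 600 s incubation; four 1 s pulses to 0 mV from −80 mV. Inhibition from peak current ratio after/before compound.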

human Kv1.3, sequence (P22001 whole entry): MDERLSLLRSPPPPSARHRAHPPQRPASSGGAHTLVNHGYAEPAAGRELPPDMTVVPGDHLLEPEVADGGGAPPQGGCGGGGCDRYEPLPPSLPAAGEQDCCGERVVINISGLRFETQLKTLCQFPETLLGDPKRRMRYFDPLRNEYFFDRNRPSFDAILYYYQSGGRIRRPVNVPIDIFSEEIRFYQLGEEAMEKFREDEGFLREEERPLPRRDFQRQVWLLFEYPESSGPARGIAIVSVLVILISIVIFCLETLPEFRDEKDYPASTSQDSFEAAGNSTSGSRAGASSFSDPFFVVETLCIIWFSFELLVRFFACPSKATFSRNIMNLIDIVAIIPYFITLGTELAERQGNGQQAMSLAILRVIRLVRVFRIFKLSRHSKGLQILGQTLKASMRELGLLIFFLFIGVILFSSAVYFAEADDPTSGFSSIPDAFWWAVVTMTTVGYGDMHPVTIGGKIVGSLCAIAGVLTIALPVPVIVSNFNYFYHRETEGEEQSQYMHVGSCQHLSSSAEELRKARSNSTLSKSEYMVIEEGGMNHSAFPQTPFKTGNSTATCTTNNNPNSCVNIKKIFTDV

In turn, `CC(C)CS(=O)(=O)N(Cc1ccc(F)cc1)c1ccc(N2CCN(C(=O)N(C)C)CC2)c(C#N)c1` [Compound 37, 4-(2-cyano-4-((N-(4-fluorobenzyl)-2-methylpropyl)sulfonamido)phenyl)-N,N-dimethylpiperazin-1-formamide] registered an IC50 of 92 nM.

Values taken from US11993576B2, “N-benzyl-N-arylsulfonamide derivative and preparation and use thereof” (Hangzhou Yirui Pharmaceutical Technology Co., Ltd, priority 2019, dated 2024).
